Experimental data taken from PubChem BioAssay AID248 (DTP/NCI, 2004).
Several values for one entry are separate records, joined by “and”; a condition that tells them apart may be missing. Equal values may be shown once. Toxic doses and inconclusive results are not listed. Rule as the data show it: active = T/C of 150% or more; inactive = T/C below 125%.

System: L1210 leukemia ip in BDF1 mice, survival T/C
Experiment: NCI In Vivo Anticancer Drug Screen. Data for tumor model L1210 Leukemia (intraperitoneal) in B6D2F1 (BDF1) mice
Conditions: endpoint: mean survival time, higher = longer survival
How it was run: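 Mice bearing the transplanted tumor received compound or vehicle. Survival of the treated group was divided by that of the vehicle-treated control group to give the ratio.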

[1] = dose: 100.0 mg/kg/injection, schedule: Q01DX009 (ip), vehicle: Klucel (hydroxypropylcellulose) (HPC)
[2] = dose: 100.0 mg/kg/injection, schedule: Q04DX003 (ip), vehicle: Klucel (hydroxypropylcellulose) (HPC)
[3] = dose: 200.0 mg/kg/injection, schedule: Q01DX009 (ip), vehicle: Klucel (hydroxypropylcellulose) (HPC)
[4] = dose: 200.0 mg/kg/injection, schedule: Q04DX003 (ip), vehicle: Klucel (hydroxypropylcellulose) (HPC)
[5] = dose: 400.0 mg/kg/injection, schedule: Q01DX009 (ip), vehicle: Klucel (hydroxypropylcellulose) (HPC)
[6] = dose: 400.0 mg/kg/injection, schedule: Q04DX003 (ip), vehicle: Klucel (hydroxypropylcellulose) (HPC)
[7] = dose: 50.0 mg/kg/injection, schedule: Q01DX009 (ip), vehicle: saline with Tween-80
[8] = dose: 100.0 mg/kg/injection, schedule: Q01DX009 (ip), vehicle: saline with Tween-80
[9] = dose: 100.0 mg/kg/injection, schedule: Q04DX003 (ip), vehicle: saline with Tween-80
[10] = dose: 200.0 mg/kg/injection, schedule: Q01DX009 (ip), vehicle: saline with Tween-80
[11] = dose: 200.0 mg/kg/injection, schedule: Q04DX003 (ip), vehicle: saline with Tween-80
[12] = dose: 0.78 mg/kg/injection, schedule: Q01DX009 (ip), vehicle: water
[13] = dose: 1.56 mg/kg/injection, schedule: Q01DX009 (ip), vehicle: water
[14] = dose: 25.0 mg/kg/injection, schedule: Q01DX009 (ip), vehicle: saline with Tween-80
[15] = dose: 100.0 mg/kg/injection, schedule: Q04DX002 (ip), vehicle: saline with Tween-80
[16] = dose: 200.0 mg/kg/injection, schedule: Q04DX002 (ip), vehicle: saline with Tween-80
[17] = dose: 400.0 mg/kg/injection, schedule: Q04DX002 (ip), vehicle: saline with Tween-80

Measured: T/C

Cc1cccc(C)c1NC(=O)Nc1ccc(S(N)(=O)=O)cc1
inactive: [1] 100 % of control | [2] 101 % of control | [3] 95 % of control and 97 % of control | [4] 94 % of control | [5] 100 % of control and 88 % of control | [6] 92 % of control

COc1ccc(C(O)SP(=S)(OC)c2ccc(OC)cc2)cc1 (configuration not stated)
inactive: [7] 100 % of control | [8] 100 % of control | [9] 92 % of control | [10] 95 % of control | [11] 88 % of control

CN(C)CCSC1=CC(=O)c2ccccc2C1=O
inactive: [12] 91 % of control | [13] 92 % of control

CCCCNC(c1ccccc1)=[N+]1CCCCC1
inactive: dose: 12.5 mg/kg/injection, schedule: Q04DX002 (ip), vehicle: saline 92 % of control | dose: 25.0 mg/kg/injection, schedule: Q04DX002 (ip), vehicle: saline 98 % of control

CC(=O)Nc1c(I)c(NC(C)=O)c(I)c(C(=O)O)c1I
inactive: [7] 105 % of control | [8] 99 % of control | [10] 108 % of control

COc1ccc(C)cc1NC(=O)C(Br)C(Br)C(=O)O (configuration not stated)
inactive: [1] 100 % of control | [3] 97 % of control | [5] 96 % of control

NC(CCl)=NCCCN1CCOCC1
inactive: dose: 100.0 mg/kg/injection, schedule: Q04DX002 (ip), vehicle: saline 114 % of control | dose: 200.0 mg/kg/injection, schedule: Q04DX002 (ip), vehicle: saline 97 % of control

CN(C)c1ccc2cc3ccc(N(C)C)cc3nc2c1
inactive: dose: 6.25 mg/kg/injection, schedule: Q01DX009 (ip), vehicle: saline with Tween-80 93 % of control | dose: 12.5 mg/kg/injection, schedule: Q01DX009 (ip), vehicle: saline with Tween-80 98 % of control | [14] 93 % of control | dose: 25.0 mg/kg/injection, schedule: Q04DX002 (ip), vehicle: saline with Tween-80 98 % of control | dose: 50.0 mg/kg/injection, schedule: Q04DX002 (ip), vehicle: saline with Tween-80 98 % of control

COc1cc(C)c(C)cc1/C(C)=C(/C)C(=O)O (tested in a mixture with another compound)
inactive: dose: 100.0 mg/kg/injection, schedule: Q01DX001 (ip), vehicle: saline with Tween-80 100 % of control | dose: 200.0 mg/kg/injection, schedule: Q01DX001 (ip), vehicle: saline with Tween-80 100 % of control | dose: 400.0 mg/kg/injection, schedule: Q01DX001 (ip), vehicle: saline with Tween-80 103 % of control

CN(N=O)C(=O)NCCSc1ncnc2nc[nH]c12
inactive: dose: 6.25 mg/kg/injection, schedule: Q01DX Z (ip), vehicle: carboxymethylcellulose (CMC) 103 % of control | dose: 12.5 mg/kg/injection, schedule: Q01DX Z (ip), vehicle: carboxymethylcellulose (CMC) 95 % of control | dose: 25.0 mg/kg/injection, schedule: Q01DX Z (ip), vehicle: carboxymethylcellulose (CMC) 107 % of control | dose: 50.0 mg/kg/injection, schedule: Q01DX Z (ip), vehicle: carboxymethylcellulose (CMC) 119 % of control

ON1CCCC1
inactive: dose: 100.0 mg/kg/injection, schedule: Q01DX009 (ip), vehicle: water 95 % of control | dose: 100.0 mg/kg/injection, schedule: Q04DX003 (ip), vehicle: water 92 % of control | dose: 200.0 mg/kg/injection, schedule: Q01DX009 (ip), vehicle: water 101 % of control | dose: 200.0 mg/kg/injection, schedule: Q04DX003 (ip), vehicle: water 92 % of control | dose: 400.0 mg/kg/injection, schedule: Q04DX003 (ip), vehicle: water 92 % of control

CCN(CC)Cc1nc2nc(Cl)c(Cl)nc2[nH]1
inactive: [14] 97 % of control | [7] 105 % of control | [9] 99 % of control

CCCCCCc1c(C(OC)OC)[nH]c(=S)[nH]c1=O
inactive: [1] 91 % of control | [2] 96 % of control | [3] 87 % of control | [4] 98 % of control | [5] 87 % of control | [6] 96 % of control

O=C1CC(=O)N(Cc2ccccc2)C(=O)N1Cc1ccccc1
inactive: dose: 100.0 mg/kg/injection, schedule: Q01DX001 (ip), vehicle: carboxymethylcellulose (CMC) 86 % of control | dose: 200.0 mg/kg/injection, schedule: Q01DX001 (ip), vehicle: carboxymethylcellulose (CMC) 92 % of control | dose: 400.0 mg/kg/injection, schedule: Q01DX001 (ip), vehicle: carboxymethylcellulose (CMC) 90 % of control

NNC(=O)c1ccc(I)cc1
inactive: [15] 118 % of control | [16] 118 % of control | [17] 107 % of control

COc1cccc([Si](C)(C)[Si](C)C)c1
inactive: dose: 100.0 mg/kg/injection, schedule: Q04DX003 (ip), vehicle: saline 98 % of control | dose: 200.0 mg/kg/injection, schedule: Q04DX003 (ip), vehicle: saline 110 % of control | dose: 400.0 mg/kg/injection, schedule: Q04DX003 (ip), vehicle: saline 96 % of control

Oc1ccc2ccccc2c1C(c1ccccc1)N1CCOCC1 (configuration not stated)
inactive: dose: 100.0 mg/kg/injection, schedule: Q04DX002 (ip), vehicle: Klucel (hydroxypropylcellulose) (HPC) 88 % of control | dose: 200.0 mg/kg/injection, schedule: Q04DX002 (ip), vehicle: Klucel (hydroxypropylcellulose) (HPC) 88 % of control | dose: 400.0 mg/kg/injection, schedule: Q04DX002 (ip), vehicle: Klucel (hydroxypropylcellulose) (HPC) 101 % of control

COc1ccc(OC)c(/C=C/c2ccc(NC(=O)C(Cl)(Cl)Cl)cc2)c1
inactive: [1] 98 % of control | [3] 93 % of control | [5] 102 % of control

CC1(C)CC(N=Cc2ccccc2O)CC(C)(C)N1O.CC1(C)CC(N=Cc2ccccc2O)CC(C)(C)N1O.[Ni]
inactive: [9] 100 % of control

COc1cc(NC=O)c2ncccc2c1
inactive: dose: 50.0 mg/kg/injection, schedule: Q04DX003 (ip), vehicle: Klucel (hydroxypropylcellulose) (HPC) 97 % of control | [2] 100 % of control | [4] 88 % of control

COC(=O)C(C(=O)OC)=C(C(=O)OC)C(=O)OC
inactive: [9] 89 % of control | [11] 94 % of control | dose: 400.0 mg/kg/injection, schedule: Q04DX003 (ip), vehicle: saline with Tween-80 93 % of control

C[n+]1cccc2cccc(N)c21
inactive: dose: 10.0 mg/kg/injection, schedule: Q01DX001 (ip), vehicle: other 105 % of control | dose: 20.0 mg/kg/injection, schedule: Q01DX001 (ip), vehicle: other 115 % of control | dose: 40.0 mg/kg/injection, schedule: Q01DX001 (ip), vehicle: other 105 % of control

O=P(C1CCCCC1)(C1CCCCC1)C1CCCCC1
inactive: [1] 89 % of control | [3] 97 % of control

BrC[Si](c1ccccc1)(c1ccccc1)c1ccccc1
inactive: [15] 96 % of control | [16] 96 % of control | [17] 92 % of control

CCN(CC)CC(O)CNc1ccnc2cc(Cl)ccc12 (configuration not stated)
inactive: [14] 97 % of control | [7] 86 % of control | [8] 97 % of control

CS(=O)(=O)OCCN(CCOS(C)(=O)=O)c1ccc(C=Nc2cccc(Br)c2)cc1
inactive: dose: 2.5 mg/kg/injection, schedule: Q04DX003 (ip), vehicle: Klucel (hydroxypropylcellulose) (HPC) 103 % of control | dose: 5.0 mg/kg/injection, schedule: Q04DX003 (ip), vehicle: Klucel (hydroxypropylcellulose) (HPC) 109 % of control | dose: 10.0 mg/kg/injection, schedule: Q04DX003 (ip), vehicle: Klucel (hydroxypropylcellulose) (HPC) 117 % of control | [2] 92 % of control

CCCCOc1ccc(OC(=O)Nc2ccc(C(=O)OCC)cc2)cc1
inactive: [1] 98 % of control | [3] 95 % of control | [5] 97 % of control

O=C1C=CC(=O)c2c(O)c(CO)c(CO)c(O)c21
inactive: [12] 89 % of control | [13] 86 % of control

Cc1ccc(S(=O)(=O)N(CCCc2c(-c3ccccc3)nc(N)[nH]c2=O)c2ccccc2)cc1
inactive: dose: 100.0 mg/kg/injection, schedule: Q01DX009 (ip), vehicle: gum acacia 101 % of control | dose: 200.0 mg/kg/injection, schedule: Q01DX009 (ip), vehicle: gum acacia 100 % of control | dose: 400.0 mg/kg/injection, schedule: Q01DX009 (ip), vehicle: gum acacia 99 % of control

CN(C)C(=O)Sc1ccc(C(C)(C)C)cc1
inactive: dose: 100.0 mg/kg/injection, schedule: Q01DX001 (ip), vehicle: Klucel (hydroxypropylcellulose) (HPC) 95 % of control | dose: 200.0 mg/kg/injection, schedule: Q01DX001 (ip), vehicle: Klucel (hydroxypropylcellulose) (HPC) 90 % of control | dose: 400.0 mg/kg/injection, schedule: Q01DX001 (ip), vehicle: Klucel (hydroxypropylcellulose) (HPC) 112 % of control
